Data: US10988455B2, “1,2,4-triazine-4-amine derivatives” (Heptares Therapeutics Limited, priority 2010, dated 2021)

Legend:
[1] = target: human adenosine A2a receptor (Homo sapiens (Human), UniProt P29274); experiment: HEK293-hA2a [3H]-ZM241385 binding assay (Test A); conditions: HEK293 membranes, 1 nM [3H]ZM241385, 25° C., 1 h
Description: (§1) All test compounds were prepared as a stock solution of 10 mM in 100% DMSO.

[2] = target: human adenosine A1 receptor (Homo sapiens (Human), UniProt P30542); experiment: CHO-hA1 [3H]DPCPX binding assay (Test A); conditions: CHO membranes, 1 nM [3H]DPCPX, 25° C., 1 h; for Ki: read-out: pKi A1 (converted)
Description: as §1

[3] = tested on: haloperidol-induced catalepsy in rats; experiment: Catalepsy reversal test (Test B); assay type: in vivo, Sprague-Dawley rats; conditions: for reversal of cataleptic behavior in rats pre-treated with haloperidol: dose of 1 mg/kg p.o.
Description: The dopamine D2 receptor antagonist, haloperidol, induces Parkinsonism in humans and induces motor effects in rats such as catalepsy. There is considerable evidence that adenosine A2A receptor antagonists reverse haloperidol-induced motor effects in preclinical studies. […] The present study determines the ability of haloperidol-induced catalepsy in rats to be reversed by novel A2A receptor antagonists.
Haloperidol (0.82 mg/kg, i.p.; 150 min pre-test time) induces significant cataleptic behaviour in rats (average score 3.1). The effect of selected compounds of the invention (2-10 mg/kg or 0.3-3 mg/kg, p.o.; 120 min pre-test time) on catalepsy was established by administration of said compounds to rats pre-treated with haloperidol as described above.
Details of a similar test may be found in, for example, Hodgson et al., J. Pharmacol. Exp. Ther. 330, 2009.

human adenosine A1 receptor, sequence (P30542 whole entry): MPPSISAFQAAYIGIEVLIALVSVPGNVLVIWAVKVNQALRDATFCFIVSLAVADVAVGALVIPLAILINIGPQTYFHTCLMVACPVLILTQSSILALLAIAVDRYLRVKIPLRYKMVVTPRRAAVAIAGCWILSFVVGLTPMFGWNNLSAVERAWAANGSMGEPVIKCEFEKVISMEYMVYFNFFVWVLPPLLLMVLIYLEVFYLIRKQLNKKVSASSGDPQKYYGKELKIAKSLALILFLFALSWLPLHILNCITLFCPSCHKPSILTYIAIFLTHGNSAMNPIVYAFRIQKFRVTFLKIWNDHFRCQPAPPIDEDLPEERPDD
human adenosine A2a receptor, sequence (P29274 whole entry): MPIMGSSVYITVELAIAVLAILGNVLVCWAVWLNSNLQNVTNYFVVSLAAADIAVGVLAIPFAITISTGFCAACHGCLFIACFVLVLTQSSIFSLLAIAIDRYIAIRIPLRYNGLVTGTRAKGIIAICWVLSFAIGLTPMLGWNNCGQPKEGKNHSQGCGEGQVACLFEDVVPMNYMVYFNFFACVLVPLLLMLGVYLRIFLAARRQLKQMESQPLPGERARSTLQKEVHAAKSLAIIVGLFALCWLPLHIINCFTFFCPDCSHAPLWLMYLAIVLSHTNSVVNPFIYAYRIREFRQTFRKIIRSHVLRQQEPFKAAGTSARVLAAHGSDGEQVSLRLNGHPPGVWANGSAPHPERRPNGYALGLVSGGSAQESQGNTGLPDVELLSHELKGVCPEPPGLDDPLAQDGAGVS

Row | pKi A2a [1] | pKi A1 [2] | SMILES | also measured
1 | 6.75 | 6.91 | Nc1nnc(-c2ccc3cc[nH]c3c2)c(-c2ccccc2)n1 [1(xviii), 6-(1H-Indol-6-yl)-5-phenyl-1,2,4-triazin-3-amine] | 
2 | 8.62 | 7.52 | Cc1cc(-c2nnc(N)nc2-c2ccccc2)cc(C(F)F)n1 [1(clxxix)] | reversal of cataleptic behavior in rats pre-treated with haloperidol ([3]; 120 min pre-test time): statistically significant
3 | 7.41 | 7.15 | Nc1nnc(-n2ccc(=O)cc2)c(-c2ccccc2)n1 [3(xvi)] | 
4 | 7.39 |  | CC1(C)CCCN(c2nnc(N)nc2-c2ccccc2)C1 [2(vi), 6-(3,3-Dimethylpiperidin-1-yl)-5-phenyl-1,2,4-triazin-3-amine] | Ki [2]: > 10000 nM
5 | 6.58 | 5.25 | Nc1nnc(-c2cc(Cl)cc(C(F)(F)F)c2)c(-c2ncccn2)n1 [1(ccxviii)] | 
6 | 7.11 | 8.45 | Nc1nnc(-c2ccc(F)c(Cl)c2)c(-c2ccccc2)n1 [1(xv), 6-(3-Chloro-4-fluorophenyl)-5-phenyl-1,2,4-triazin-3-amine] | 
7 | 7.19 | 8.20 | Nc1nnc(-c2ccc3occc3c2)c(-c2ccccc2)n1 [1(xxxv), 6-(1-benzofuran-5-yl)-5-phenyl-1,2,4-triazin-3-amine] | 
8 | 5.07 | 6.71 | Cc1csc(Nc2nnc(N)nc2-c2ccccc2)n1 [2(xxii)] | 
9 | 5.82 | 7.00 | Cc1ccc(Sc2nnc(N)nc2-c2ccccc2)cc1 [3(xxxii)] | 
10 | 8.03 | 6.93 | Cc1cc(-c2nnc(N)nc2-c2ccccc2F)cc(Cl)n1 [1(clxxvi)] | 
11 | 7.77 | 7.62 | Cc1cn(-c2nnc(N)nc2-c2ccccc2)cc(C)c1=O [5(ix), 1-(3-Amino-5-phenyl-1,2,4-triazin-6-yl)-3,5-dimethylpyridin-4(1H)-one] | 
12 | 7.21 | 5.97 | Nc1nnc(-c2cc(Cl)cc(Cl)c2)c(-c2ccccn2)n1 [1(cciv)] | 
13 | 8.90 | 7.76 | Nc1nnc(-c2cc(Cl)nc(C(F)F)c2)c(-c2ccccc2)n1 [1(clxxx)] | 
14 | 7.17 |  | Nc1nnc(Oc2ccccc2)c(-c2ccccc2)n1 [3(i), 6-Phenoxy-5-phenyl-1,2,4-triazin-3-amine] | Ki [2]: > 10000 nM
15 | 5.62 | 7.62 | Nc1nnc(-c2cnn(Cc3ccccc3)c2)c(-c2ccccc2)n1 [1(cxxxiv)] | 

Second part, the molecule before the results:

Row | SMILES | pKi A2a [1] | pKi A1 [2] | also measured
16 | Nc1nnc(-c2ccnc(C3CC3)c2)c(-c2ccccc2)n1 [1(lxxix)] | 7.45 | 9.35 | 
17 | Cc1cc(-c2nnc(N)nc2-c2ccc(F)cc2)cc(C(F)(F)F)n1 [1(cxciii)] |  | 6.93 | reversal of cataleptic behavior in rats pre-treated with haloperidol ([3]; 120 min pre-test time): statistically significant
18 | Cc1ncccc1Oc1nnc(N)nc1-c1ccccc1 [3(xxi)] | 6.22 | 8.07 | 
19 | Cc1cc(-c2nnc(N)nc2-c2cc(F)cc(F)c2)cc(C)n1 [1(cliv)] |  | 6.77 | reversal of cataleptic behavior in rats pre-treated with haloperidol ([3]; 120 min pre-test time): statistically significant
20 | Cn1nc(C(F)(F)F)cc1Oc1nnc(N)nc1-c1ccccc1 [3(xxiv)] | 7.39 | 8.46 | 
21 | Cc1cc(-c2nnc(N)nc2-c2ccccc2)cc(C)c1O [1(xli)] |  | 7.83 | 
22 | O=C(CCCN1CCC(O)(c2ccc(Cl)cc2)CC1)c1ccc(F)cc1 [Haloperidol, haloperidol, reference compound] |  |  | catalepsy average score (maximum score of 4) ([3]; haloperidol 0.82 mg/kg i.p., 150 min pre-test time): 3.1
23 | Cc1cc(-c2nnc(N)nc2-c2ccccc2)cc(C)[n+]1[O-] [1(ccxiii)] | 7.51 | 7.12 | 
24 | Nc1nnc(-c2ccc3ccccc3c2)c(-c2ccccc2)n1 [1(lxxii)] | 6.99 | 8.52 | 
25 | [2H]C([2H])([2H])c1cc(-c2nnc(N)nc2-c2ccccc2)cc(C)n1 [5(viii), 6-(2-Methyl-6-d3-methylpyridin-4-yl)-5-phenyl-1,2,4-triazin-3-amine] |  | 7.26 | 
26 | CC1CN(c2nnc(N)nc2-c2ccccc2)CC(C)O1 (stereo not drawn) [2(iv), 6-(2,6-Dimethylmorpholin-4-yl)-5-phenyl-1,2,4-triazin-3-amine] | 7.79 |  | Ki [2]: > 10000 nM
27 | Cc1cc(-c2nnc(N)nc2-c2ccccc2)cc(C(F)(F)F)n1 [Example 1(ccix), 6-[2-methyl-6-(trifluoromethyl)pyridin-4-yl]-5-phenyl-1,2,4-triazin-3-amine] |  | 7.60 | reversal of cataleptic behavior in rats pre-treated with haloperidol ([3]; 120 min pre-test time): statistically significant
28 | Nc1nnc(-c2cc(Cl)nc(CF)c2)c(-c2ccccc2)n1 [1(clxxxi)] | 8.71 | 7.17 | 
29 | Nc1nnc(Oc2cccc(C(F)(F)F)c2)c(-c2ccccc2)n1 [3(v), 5-Phenyl-6-[3-(trifluoromethyl)phenoxy]-1,2,4-triazin-3-amine] | 5.96 |  | 
30 | Nc1nnc(-c2cccc(C(F)(F)F)c2)c(-c2ccccc2)n1 [1(ix), 5-Phenyl-6-[3-(trifluoromethyl)phenyl]-1,2,4-triazin-3-amine] |  | 7.81 | 
31 | Cc1cc(-c2nnc(N)nc2-c2ccc(F)cc2)cc(N2CCC2)n1 [5(xi), 6-[2-(azetidin-1-yl)-6-methylpyridin-4-yl]-5-(4-fluorophenyl)-1,2,4-triazin-3-amine] | 7.76 | 6.90 | 
32 | Nc1nnc(-c2cc(Cl)cc(C3CC3)c2)c(-c2ccccc2)n1 [4(ii), 6-(3-Chloro-5-cyclopropylphenyl)-5-phenyl-1,2,4-triazin-3-amine] |  |  | Ki ([1]; read-out: pKi A2a (converted)): 12.9 nM; Ki [2]: 37.2 nM
33 | CC1(C)C=C(c2nnc(N)nc2-c2ccccc2)CC(C)(C)O1 [1(lxxx)] | 6.61 | 6.01 | 
34 | Nc1nnc(-c2cccc(Cl)c2)c(-c2ccccc2)n1 [Example 1(vi), 6-(3-Chlorophenyl)-5-phenyl-1,2,4-triazin-3-amine] |  |  | ED50 ([3]; Rattus norvegicus, p.o., 120 min pre-test time, haloperidol 0.82 mg/kg i.p., read-out: ED50, reversal of cataleptic behaviour in rats pre-treated with haloperidol): 9.8 mg/kg
35 | Cc1cc(-c2nnc(N)nc2-c2ccc(F)cc2)cc(Cl)n1 [Example 1(xcv), 6-(2-chloro-6-methylpyridin-4-yl)-5-(4-fluorophenyl)-1,2,4-triazin-3-amine] |  |  | reversal of cataleptic behavior in rats pre-treated with haloperidol ([3]; 120 min pre-test time): statistically significant
36 | CC1CCCN(c2nnc(N)nc2-c2ccccc2)C1 (stereo not drawn) [2(iii), 6-(3-Methylpiperidin-1-yl)-5-phenyl-1,2,4-triazin-3-amine] | 7.31 | 5.37 | 
37 | COc1cc(OC)cc(-c2nnc(N)nc2-c2ccccc2)c1 [1(xxiv), 6-(3,5-Dimethoxyphenyl)-5-phenyl-1,2,4-triazin-3-amine] | 6.97 | 8.03 | 
38 | Nc1nnc(N2CCOC(CO)C2)c(-c2ccccc2)n1 (stereo not drawn) [2(xxv)] | 5.53 | 7.49 | 
39 | CN(C)c1cc(-c2nnc(N)nc2-c2ccccc2)ccn1 [1(ccxi)] | 7.71 | 8.74 | 
40 | Nc1nnc(-c2cc(Cl)cc(Cl)c2)c(-c2ccccc2)n1 [1(xiii), 6-(3,5-Dichlorophenyl)-5-phenyl-1,2,4-triazin-3-amine] |  |  | reversal of cataleptic behavior in rats pre-treated with haloperidol ([3]; 120 min pre-test time): statistically significant
41 | CC(=O)Nc1cc(-c2nnc(N)nc2-c2ccccc2)ccc1O [5(vii), N-[5-(3-Amino-5-phenyl-1,2,4-triazin-6-yl)-2-hydroxyphenyl]acetamide] | 6.73 | 8.69 | 
